US8604046B2, “Substituted piperidine spiro pyrrolidinone and piperidinone, preparation and therapeutic use thereof” (Sanofi, priority 2008, dated 2013)

Legend:
rhesus H3 receptor [1] = molecular target: T1, rhesus H3 receptor (Macaca mulatta, UniProt Q865E1); test: Rhesus H3 [3H]-methylhistamine radioligand binding assay; parameters: species or system rhesus monkey (Macacca Mulatta); details: [3H]-Methylhistamine 2 nM, rhesus H3 membranes, WGA SPA beads, Cheng-Prusoff
Description: (§1) Rhesus H3 membranes were prepared from the Flp-In T-REx 293 Cell Line (Invitrogen) stably transfected with pcDNA5/FRT/TO (Invitrogen) containing the rhesus monkey (Macacca Mulatta) 445 amino acid H3 receptor. (Genbank #AY231164). Stably transfected cultures were amplified in tissue culture flasks by standard tissue culture methods and induced to express rhesus H3 by exposure to 500 ng/ml tetracycline (Cellgro) for 24 hours. After induction, cells were dissociated from flasks utilizing Cell Stripper (Cellgro). Cells were centrifuged (1K×g, 5 min) and pellet frozen in an ethanol-dry ice bath to disrupt cell membranes. Frozen cell pellet was re-suspended in 5 mM HEPES (pH 7.4, Invitrogen) at 10 ml/1000 cm2 of harvested cells. The cell suspension was drawn through an 18 gauge needle (2-3×) followed by a 23 gauge needle (2-3×) to further disrupt cell membranes. The cell suspension was centrifuged (40K×g, 30 min). Cell membrane pellet was re-suspended in 5 mM HEPES (pH 7.4, Invitrogen) at a final protein concentration of 10 mg/ml. Rhesus H3 membranes were stored under liquid nitrogen prior to use in [3H]-Methylhistamine and GTP S radioligand binding assays.
Rhesus H3 radioligand binding assay was performed using rhesus H3 receptor membranes (prepared as described above), [3H]-Methylhistamine (Perkin Elmer) and WGA SPA beads (wheat germ agglutinin scintillation proximity assay) beads (Amersham). The assay was performed in 96-well Opti-Plates (Packard). Each reaction contained 50 μl rhesus H3 membranes (20-30 μg total protein), 50 μl WGA SPA beads (0.1 μg) and 50 μl of 83 Ci/mmol [^3H]-Methylhistamine (final concentration 2 nM) and 50 μl of tested compound. The compounds of this invention and/or vehicle were diluted with binding buffer from 10 mM DMSO stocks. Assay plates were sealed with TopSeal (Perkin Elmer) and mixed on shaker (25° C., 1 hour). Assay plates were read on TopCount scintillation counter (Packard). Results were analyzed by Hill transformation and Ki values were determined by Cheng-Prusoff equation.

rhesus H3 receptor [2] = molecular target: T1, rhesus H3 receptor; test: GTPγS radioligand binding assay, inhibition of rhesus H3 constitutive functional activity (inverse agonism); type: biochemical, rhesus monkey (Macacca Mulatta); parameters: concentration or dose not given beside the values; details: rhesus H3 cell membranes, relative to basal levels
Description: as §1

T1 sequence (Q865E1 1-445): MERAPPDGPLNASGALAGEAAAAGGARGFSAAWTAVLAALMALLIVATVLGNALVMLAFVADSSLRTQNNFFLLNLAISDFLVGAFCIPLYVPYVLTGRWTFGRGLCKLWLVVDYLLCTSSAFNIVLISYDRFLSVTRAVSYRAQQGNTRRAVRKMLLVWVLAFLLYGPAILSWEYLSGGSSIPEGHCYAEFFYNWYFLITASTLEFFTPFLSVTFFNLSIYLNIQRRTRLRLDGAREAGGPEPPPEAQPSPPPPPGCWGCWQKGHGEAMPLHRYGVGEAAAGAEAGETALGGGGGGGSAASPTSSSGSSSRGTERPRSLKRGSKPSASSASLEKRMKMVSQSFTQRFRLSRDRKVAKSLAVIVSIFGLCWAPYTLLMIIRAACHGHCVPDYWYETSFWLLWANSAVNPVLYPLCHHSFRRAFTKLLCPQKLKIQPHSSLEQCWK

| Compound | Ki (rhesus H3 receptor [1]) [nM] | Inverse Agonism: % inhibition of Basal GTPγS binding in Rhesus H3 (rhesus H3 receptor [2]) [%] |
| --- | --- | --- |
| Cc1cc(N2CC[C@H](N3CCC[C@@H]3C)C2)ccc1N1CCCC2(CCN(C(=O)c3ccoc3)CC2)C1=O [Example 27, 9-(Furan-3-carbonyl)-2-[2-methyl-4-((2S,3′S)-2-methyl-[1,3′]bipyrrolidinyl-1′-yl)-phenyl]-2,9-diaza-spiro[5.5]undecan-1-one] | 1.6 | −19 |
| C[C@H]1CCCN1[C@H]1CCN(c2ccc(N3CCCC4(CCN(C(=O)c5ccccc5)CC4)C3=O)cc2)C1 [Example 28, 9-Benzoyl-2-[4-((2S,3′S)-2-methyl-[1,3′]bipyrrolidinyl-1′-yl)-phenyl]-2,9-diaza-spiro[5.5]undecan-1-one] | 0.5 | −15 |
| C[C@H]1CCCN1[C@H]1CCN(c2ccc(N3CCCC4(CCN(C(=O)c5ccc(F)cc5)CC4)C3=O)cc2)C1 [Example 29] | 0.4 | −17 |
| C[C@H]1CCCN1[C@H]1CCN(c2ccc(N3CCCC4(CCN(C(=O)C5CCCCC5)CC4)C3=O)c(F)c2)C1 [Example 30, 9-Cyclohexanecarbonyl-2-[2-fluoro-4-((2S,3′S)-2-methyl-[1,3′]bipyrrolidinyl-1′-yl)-phenyl]-2,9-diaza-spiro[5.5]undecan-1-one] | 0.7 | −22 |
| C[C@H]1CCCN1[C@H]1CCN(c2ccc(N3CCCC4(CCN(C(=O)C5CCOCC5)CC4)C3=O)c(F)c2)C1 [Example 31, 2-[2-Fluoro-4-((2S,3′S)-2-methyl-[1,3′]bipyrrolidinyl-1′-yl)-phenyl]-9-(tetrahydro-pyran-4-carbonyl)-2,9-diaza-spiro[5.5]undecan-1-one] | 0.4 | −19 |
| Cc1cc(N2CC[C@H](N3CCC[C@@H]3C)C2)ccc1N1CCCC2(CCN(C(C)C)CC2)C1=O [Example 32, 9-Isopropyl-2-[2-methyl-4-((2S,3′S)-2-methyl-[1,3′]bipyrrolidinyl-1′-yl)-phenyl]-2,9-diaza-spiro[5.5]undecan-1-one] | 0.4 | −14 |
| Cc1cc(N2CC[C@H](N3CCC[C@@H]3C)C2)ccc1N1CCCC2(CCN(CC3CCCCC3)CC2)C1=O [Example 33, 9-Cyclohexylmethyl-2-[2-methyl-4-((2S,3′S)-2-methyl-[1,3′]bipyrrolidinyl-1′-yl)-phenyl]-2,9-diaza-spiro[5.5]undecan-1-one] | 0.2 | −14 |
| C[C@H]1CCCN1[C@H]1CCN(c2ccc(N3CCCC4(CCN(CC5CC5)CC4)C3=O)cc2)C1 [Example 34, 9-Cyclopropylmethyl-2-[4-((2S,3′S)-2-methyl-[1,3′]bipyrrolidinyl-1′-yl)-phenyl]-2,9-diaza-spiro[5.5]undecan-1-one] | 0.2 | −16 |
| C[C@H]1CCCN1[C@H]1CCN(c2ccc(N3CCCC4(CCN(C5CCOCC5)CC4)C3=O)cc2)C1 [Example 35, 2-[4-((2S,3′S)-2-Methyl-[1,3′]bipyrrolidinyl-1′-yl)-phenyl]-9-(tetrahydro-pyran-4-yl)-2,9-diaza-spiro[5.5]undecan-1-one] | 0.04 | −18 |
| C[C@H]1CCCN1[C@H]1CCN(c2ccc(N3CCCC4(CCN(Cc5ccccc5)CC4)C3=O)c(F)c2)C1 [Example 36, 9-Benzyl-2-[2-fluoro-4-((2S,3′S)-2-methyl-[1,3′]bipyrrolidinyl-1′-yl)-phenyl]-2,9-diaza-spiro[5.5]undecan-1-one] | 0.06 | −13 |
| C[C@H]1CCCN1[C@H]1CCN(c2ccc(N3CCCC4(CCN(Cc5ccco5)CC4)C3=O)c(F)c2)C1 [Example 37, 2-[2-Fluoro-4-((2S,3′S)-2-methyl-[1,3′]bipyrrolidinyl-1′-yl)-phenyl]-9-furan-2-ylmethyl-2,9-diaza-spiro[5.5]undecan-1-one] | 0.1 | −17 |
| C[C@H]1CCCN1C1CCN(c2ccc(N3CCC4(CCN(C(=O)OC(C)(C)C)CC4)C3=O)cc2)CC1 [Example 38, 2-{4-[4-(2S-2-Methyl-pyrrolidin-1-yl)-piperidin-1-yl]-phenyl}-1-oxo-2,8-diaza-spiro[4,5]decane-8-carboxylic acid tert-butyl ester] | 0.008 | −25 |
| C[C@H]1CCCN1C1CCN(c2ccc(N3CCC4(CCN(C(=O)OC(C)(C)C)CC4)C3=O)c(C(F)(F)F)c2)CC1 [Example 39, 2-{4-[4-(2S-2-Methyl-pyrrolidin-1-yl)-piperidin-1-yl]-2-trifluoromethyl-phenyl}-1-oxo-2,8-diaza-spiro[4.5]decane-8-carboxylic acid tert-butyl ester] | 0.9 | −22 |
| C[C@H]1CCCCN1[C@H]1CCN(c2ccc(N3CCC4(CCN(C(=O)OC(C)(C)C)CC4)C3=O)cc2)C1 [Example 41, 2-{4-[3-((2S,3′S)-2-Methyl-piperidin-1-yl)-pyrrolidin-1-yl]-phenyl}-1-oxo-2,8-diaza-spiro[4.5]decane-8-carboxylic acid tert-butyl ester] | 5.6 | −14 |
| C[C@H]1CCCCN1[C@H]1CCN(c2ccc(N3CCC4(CCN(C(=O)OC(C)(C)C)CC4)C3=O)c(C(F)(F)F)c2)C1 [Example 42, 2-{4-[3-((2S,3′S)-2-Methyl-piperidin-1-yl)-pyrrolidin-1-yl]-2-trifluoromethyl-phenyl}-1-oxo-2,8-diaza-spiro[4.5]decane-8-carboxylic acid tert-butyl ester] | 64 | −15 |
| C[C@H]1CCCCN1[C@H]1CCN(c2ccc(N3CCC4(CCN(C(=O)OC(C)(C)C)CC4)C3=O)c(F)c2)C1 [Example 43, 2-{4-[3-((2S,3′S)-2-Methyl-piperidin-1-yl)-pyrrolidin-1-yl]-2-fluoro-phenyl}-1-oxo-2,8-diaza-spiro[4.5]decane-8-carboxylic acid tert-butyl ester] | 4.3 | −19 |
| C[C@H]1CCCN1C1CCN(c2ccc(N3CCC4(CCNCC4)C3=O)cc2)CC1.Cl [Example 44, 2-{4-[4-(2S-2-Methyl-pyrrolidin-1-yl)-piperidin-1-yl]-phenyl}-2,8-diaza-spiro[4.5]decan-1-one Hydrochloride] | 0.1 | −19 |
| C[C@H]1CCCN1C1CCN(c2ccc(N3CCC4(CCNCC4)C3=O)c(C(F)(F)F)c2)CC1.Cl [Example 45, 2-{4-[4-(2S-2-Methyl-pyrrolidin-1-yl)-piperidin-1-yl]-2-trifluoromethyl-phenyl}-2,8-diaza-spiro[4.5]decan-1-one Hydrochloride] | 0.15 | −19 |
| C[C@H]1CCCN1C1CCN(c2ccc(N3CCC4(CCNCC4)C3=O)c(F)c2)CC1.Cl [Example 46, 2-{4-[4-(2S-2-Methyl-pyrrolidin-1-yl)-piperidin-1-yl]-2-fluoro-phenyl}-2,8-diaza-spiro[4.5]decan-1-one Hydrochloride] | 0.1 | −24 |
| C[C@H]1CCCCN1[C@H]1CCN(c2ccc(N3CCC4(CCNCC4)C3=O)cc2)C1.Cl [Example 47, 2-{4-[3-((2S,3′S)-2-Methyl-piperidin-1-yl)-pyrrolidin-1-yl]-phenyl}-2,8-diaza-spiro[4.5]decan-1-one Hydrochloride] | 0.4 | −17 |
| C[C@H]1CCCCN1[C@H]1CCN(c2ccc(N3CCC4(CCNCC4)C3=O)c(C(F)(F)F)c2)C1.Cl [Example 48, 2-{4-[3-((2S,3′S)-2-Methyl-piperidin-1-yl)-pyrrolidin-1-yl]-2-trifluoromethyl-phenyl}-2,8-diaza-spiro[4.5]decan-1-one Hydrochloride] | 0.6 | −24 |
| C[C@H]1CCCCN1[C@H]1CCN(c2ccc(N3CCC4(CCNCC4)C3=O)c(F)c2)C1.Cl [Example 49, 2-{4-[3-((2S,3′S)-2-Methyl-piperidin-1-yl)-pyrrolidin-1-yl]-2-fluoro-phenyl}-2,8-diaza-spiro[4.5]decan-1-one Hydrochloride] | 0.5 | −22 |
| C[C@H]1CCCN1C1CCN(c2ccc(N3CCC4(CCN(S(=O)(=O)c5ccccc5)CC4)C3=O)cc2)CC1 [Example 50, 8-Benzenesulfonyl-2-{4-[4-(2S-2-methyl-pyrrolidin-1-yl)-piperidin-1-yl]-phenyl}-2,8-diaza-spiro[4.5]decan-1-one] | 0.24 | −23 |
